Assay results from the METLIN SMRT retention time set (Domingo-Almenara et al. 2019).

assay: gradient 5% acetonitrile 3 min, to 50% in 2 min, to 85% in 15 min, held 3 min, 100 µL/min; conditions: column: Zorbax Extend-C18 2.1 x 50 mm; eluents: water / acetonitrile, 0.1% formic acid
In short: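 Retention time was recorded from adduct peaks, which were picked computationally and each inspected manually. Pure standards ran in mixtures of ~100 molecules on HPLC coupled to a quadrupole time-of-flight mass spectrometer, in positive and negative ionization mode, through a Zorbax Extend-C18 column (2.1 × 50 mm, 1.8 μm) at 100 μL/min. Eluents were water and acetonitrile, each with 0.1% formic acid.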

RP-LC retention time	Structure (SMILES)
1100 s	COc1ccc(-c2cc3ccccc3[nH]2)cc1
873 s	O=C(c1ccccc1)N1CCN(C(=O)c2nnn3c2COC(c2ccc(Cl)cc2)C3)CC1 (stereo not drawn)
1210 s	O=C(CCCOc1ccc(Cl)cc1Cl)Nc1nc(-c2ccccc2)cs1
1030 s	CC1CCN(c2cnn(CC(=O)Nc3ccc4c(c3)CCC4)c(=O)c2Cl)CC1
781 s	COc1cc(C)c(C(C)C)cc1S(=O)(=O)Nc1cccc(C)n1
768 s	O=C(COc1ccccc1F)NC1CCCCC1N1C(=O)CSC1=O (stereo not drawn)
942 s	COC(=O)c1ccc(-c2csc(NC(=O)C3CCCC3)n2)cc1
828 s	O=C(CN1C(=O)C2CCCCN2c2ccc(C(=O)N3CCCCC3)cc21)NC1CCCC1 (stereo not drawn)
828 s	CC(Cc1ccco1)NC(=O)c1cc2n(n1)CCCN(Cc1ccccc1)C2=O (stereo not drawn)
1100 s	CC(C)OCCCNC(=O)Cn1cccc1-c1nc(-c2ccc(Cl)cc2)cs1
795 s	CCOc1ccc2nc(Nc3ncc4c(n3)CC(c3cccs3)CC4=O)nc(C)c2c1 (stereo not drawn)
1100 s	CCc1ccc(N2CC(c3noc(-c4cc(OC)cc(OC)c4)n3)CC2=O)cc1 (stereo not drawn)
691 s	O=C(CSc1nnc(-c2ccccc2F)o1)Nc1nccs1
712 s	Cn1nc(-c2ccsc2)nc1C1CN(S(=O)(=O)c2cccnc2)C1
974 s	CC(C)N1C(=O)C(C)(C(=O)NCc2ccccc2Cl)Oc2cccnc21 (stereo not drawn)
679 s	CCN1CCCC(Cn2cc(COc3ccc4c(c3)CCC4)nn2)C1 (stereo not drawn)
650 s	Cc1[nH]c2ccc(C(=O)NC3CCCC3)cc2c1C
546 s	Nc1cccc(-c2ccc(N3CCOCC3)nn2)c1
591 s	CCCn1ncc(N2CCC(C(=O)N3CCN(C(C)=O)CC3)CC2)cc1=O
688 s	Cc1ccc(C(=O)N2CCN(c3nc(CN4CCC(C)CC4)cs3)CC2)cc1F
914 s	Cc1cccc(S(=O)(=O)N2C[C@H](c3nc(-c4cccnc4)no3)[C@@H](C)C2)c1

Further lines, the compound ahead of its results:

Structure (SMILES)	RP-LC retention time
O=C(N[C@H]1C[C@@H]2C[C@H]1N(C(=O)Cc1c(F)cccc1Cl)C2)c1ccccc1	827 s
CCCc1noc(-c2ccnc(-n3cnc(C(=O)NC4CCCCC4)c3)c2)n1	973 s
O=C(NC1CC1)c1nc2ccccn2c1-c1ccc(Cl)cc1	802 s
O=C(Cc1csc2nc(-c3ccccc3)cn12)N1CCN(c2cccc(Cl)c2)CC1	949 s
Cc1ccc(-n2cccc2CC(=O)NC2CCCCC2)cc1	1020 s
COCCNc1cc(-n2ccnc2C)n2nccc2n1	554 s
Oc1cc2c(c(Cl)c1O)CCNC[C@@H]2c1ccccc1	648 s
O=C(NC1CCN(c2cc(-c3cccs3)[nH]n2)C1)c1ccccc1Br (stereo not drawn)	705 s
CCOC(=O)c1cc(S(=O)(=O)N2CCCC2C(=O)Nc2ccc3c(c2)OCO3)cn1C (stereo not drawn)	876 s
CCN(C(C)=O)c1nc(-c2ccc(Br)cc2)cs1	1170 s
CCN1C(=O)COc2ccc(-c3csc(NC(=O)c4cccc(OC)c4)n3)cc21	967 s
CC1Oc2ccc(-c3csc(NC(=O)CCC4CCCCC4)n3)cc2N(C)C1=O (stereo not drawn)	1230 s
O=C(NCC1CN(c2ccc(F)cc2)C(=O)O1)c1cc(Cl)ccc1Cl (stereo not drawn)	797 s
O=C(c1cccs1)N1CCN(c2cc(-c3ccccc3)[nH]n2)CC1	734 s
O=C(NCc1ccccc1)N1CCCC1c1nc(-c2ccccc2)n[nH]1 (stereo not drawn)	731 s
N#CCn1cccc(S(=O)(=O)N2CCCCCC2)c1=O	737 s
CCc1nc(-c2ccc3c(c2)CCN3C(=O)Cc2ccc(OC)c(OC)c2)no1	923 s
CCc1cccc(NC(=O)C2CCN(S(=O)(=O)c3ccc4c(c3)sc(=O)n4C)CC2)c1	862 s
CC(=O)c1cccc(NC(=O)Cn2c(N3CCc4ccccc4C3)nc(C)cc2=O)c1	723 s
Cc1nc(C)c(C(=O)NC2CCN(c3ccc(=O)n(CCOc4ccccc4)n3)C2)s1 (stereo not drawn)	703 s
CCS(=O)(=O)N1CCC(c2ccccc2)C1 (stereo not drawn)	791 s
CCOc1ccccc1NC(=O)Cn1ccnc1-c1ccnc(N2CCOCC2)c1	638 s
CCN1CCN(c2cc(C)c3cc(NC(=S)NCc4ccc(F)cc4Cl)ccc3n2)CC1	657 s
Cc1ccc2nc3c(c(C(=O)NC4CC4)c2c1)CCCC3	584 s

Structure (SMILES)	RP-LC retention time
CN1CCN(c2c(C(=O)c3ccccc3)cnc3cc4c(cc23)OCO4)CC1	560 s
Cc1ccccc1-n1c(=O)c2sccc2n(Cc2nc(-c3ccc(F)c(Cl)c3)no2)c1=O	1110 s
CC(NC(=O)CCc1ccc2[nH]ccc2c1)c1ccccc1 (stereo not drawn)	812 s
Cc1nc(C)c(C(=O)N2CC[C@H](CO)[C@H](NC(=O)C3CC3)C2)s1	573 s
O=C(NCc1ccccc1)C1CCCN(c2ncnc3c2nc2n3CCCCC2)C1 (stereo not drawn)	732 s
CN(C)CCCCN1CCc2c(n(C)c3ccccc23)C1=O	650 s
O=c1c2ccccc2c(-c2nc(-c3cccnc3)no2)nn1-c1ccc(F)cc1	998 s
O=C(Cn1cc(C(=O)C(=O)N2CCOCC2)c2ccccc21)NCc1ccc2c(c1)OCCCO2	704 s
Cc1cccc(N2CCN(C(=O)C3CCN(S(=O)(=O)c4cccc5nsnc45)CC3)CC2)c1C	1050 s
CN1C(=O)COc2ccc(-c3csc(NC(=O)Cc4ccccc4)n3)cc21	898 s
O=C(Nc1nccs1)C1CCN(C(=O)Cn2ccc3ccccc32)CC1	719 s
CCN1CCCC1CNC(=O)CCc1nc(-c2ccc(N3CCCC3)cc2)no1 (stereo not drawn)	685 s
Cc1ccc(C)c(S(=O)(=O)Nc2ccc3scnc3c2)c1	776 s
COC(=O)C1=C(N)Oc2cc(C)n(CCN(C)C)c(=O)c2C1c1ccccc1Cl (stereo not drawn)	624 s
Cc1ccc(F)cc1NS(=O)(=O)c1c[nH]c2ncccc12	747 s
COC(=O)Cn1c(C)cc(=O)c2cccc(F)c21	549 s
COc1cc(NC(=O)c2cn(-c3cc(N(C)C)ncn3)cn2)cc(OC)c1	809 s
CCNC(=O)c1cc2c(-c3cc(OCCN4CCCC4)c(Cl)cc3Cl)nc(N)nc2s1	711 s
Cc1ccc(-c2cc(C(=O)N3CCN(C4CCN(C)CC4)CC3)n(C)c2)cc1	590 s
Cn1cc(CCNS(=O)(=O)c2ccc(Br)s2)c2cccnc21	779 s
CCOCN(C(=O)Cn1c(COC)nc2ccccc21)c1c(C)cccc1CC	874 s
CC(=O)Nc1ccc(S(=O)(=O)N2CCCn3nc(-c4cccc(Cl)c4)cc3C2)cc1	910 s
Cc1c(C(=O)N2CCOCC2)cnn1-c1ccc(-c2nc(C3CC3)no2)cn1	778 s
